Series [1] deals with LNCaP prostate tumor cells. The experiment in a line: In vitro Alamar Blue cytotoxicity assay of non-cleavable oligopeptide-doxorubicin conjugates. The class given is cell-based, human. The note with it: FIG. 4 legend, cells incubated 3 days at 37° C., cell line not named in legend (LNCaP or DuPRO in method). As to the method:
The cytotoxicities of the non-cleaveable oligopeptide-doxorubicin conjugates, prepared as described in Example 4, against a line of cells which is known to be killed by unmodified doxorubicin were assessed with an Alamar Blue assay. Specifically, cell cultures of LNCaP prostate tumor cells, which are a human metastatic prostate adenocarcinoma isolated from a needle biopsy of a lymph node (LNCaP.FGC: American Type Culture Collection, ATCC CRL 1740), or DuPRO cells in 96 well plates were diluted with medium containing various concentrations of a given conjugate (final plate well volume of 200 μl). The cells were incubated for 3 days at 37° C. and then 20 μl of Alamar Blue was added to the assay well. The cells were further incubated and the assay plates were read on a EL-310 ELISA reader at the dual wavelengths of 570 and 600 nm at 4 and 7 hours after addition of Alamar Blue. Relative percentage viability at the various concentration of conjugate tested was then calculated versus control (no conjugate) cultures. Cytotoxicities of unmodified doxorubicin and unmodified oligopeptide were also assessed.
A general note: Resazurin is reduced to fluorescent resorufin, in cell work by metabolically active cells.

pEC50: −log10 of the molar value.

Usually pEC50 stands for the negative decadic logarithm of the EC50, by convention in mol/L. Read a low pEC50 as a large EC50. Consider `COc1cccc2c1C(=O)c1c(O)c3c(c(O)c1C2=O)C[C@@](O)(C(=O)CO)C[C@@H]3O[C@H]1C[C@H](N)[C@H](O)[C@H](C)O1` [doxorubicin], for which, in series [1], the pEC50 was 6.52.
Take “Ac-AlaAsnGluIleSerTyrGln.vertline.SerAlaSerThrGlu-amide”: in the series on free PSA, the cleaved bond entry was “Gln-Ser”.
Still for that read-out and setting: the value for “Ac-AlaAsnLysAlaSerTyrGln.vertline.SerAlaSerCys-amide” was “Gln-Ser”.
With “Ac-AlaAsnLysAlaSerTyrGln.vertline.SerAlaSerThrGlu-amide”, the cleaved bond entry with free PSA is on record as “Gln-Ser”.
Consider “Ac-AlaAsnLysIleSerTyrGln.vertline.SerAlaLysThrGlu-amide”, for which, in the series with free PSA, the cleaved bond entry is “Gln-Ser”.
On the same count and under the same terms, the entry for “Ac-AlaAsnLysIleSerTyrGln.vertline.SerAlaSerThrGlu-amide” is “Gln-Ser”; for “Ac-AlaAsnLysIleSerTyrGln.vertline.SerSerGlnThrGlu-amide” it is “Gln-Ser”.
Still for that read-out and setting: the entry for “Ac-AlaAsnLysIleSerTyrGln.vertline.SerSerLysThrGlu-amide” is “Gln-Ser”; for “Ac-AlaAsnLysIleSerTyrGln.vertline.SerSerSerThrGlu-amide” it is “Gln-Ser”; for “Ac-AlaAsnLysIleSerTyrGln.vertline.SerSerSerThrLeu” it is “Gln-Ser”.
Same read-out and setting: the value for “Ac-AlaAsnLysIleSerTyrGln.vertline.SerSerSerThrLeu-amide” was “Gln-Ser”; that for “Ac-AlaAsnLysIleSerTyrGln.vertline.SerSerThrGlu-amide” was “Gln-Ser”.
For the molecule “Ac-AlaAsnLysIleSerTyrGln.vertline.SerThrGlu-amide”, the cleaved bond result with free PSA was “Gln-Ser”.
The same measure, in the same setting: the entry for “Ac-AlaAsnLysIleSerTyrTyr.vertline.SerAlaSerThrGlu-amide” is “Tyr-Ser”.
On the same count and under the same terms, the value for “Ac-AlaAsnLysIleSerTyrTyr.vertline.SerSerSerThrGlu-amide” was “Tyr-Ser”.
The same measure, in the same setting: the value for “Ac-AlaAsnLysSerTyrGln.vertline.SerSerThrGlu-amide” was “Gln-Ser”; that for “Ac-AlaAsnSerTyrGln.vertline.SerSerSerThrGlu-amide” was “Gln-Ser”.
On to “Ac-AlaAspLysAlaLysTyrGln.vertline.SerSer(Cha)-NHNH2”, for which the cleaved bond result in the series on free PSA is “Gln-Ser”.
Same read-out and setting: the entry for “Ac-AlaSerTyrGln.vertline.SerSerLeu-amide” is “Gln-Ser”.
Still for that read-out and setting: the entry for “Ac-AlaSerTyrGln.vertline.SerSerSerThrGlu-amide” is “Gln-Ser”; for “Ac-AlaSerTyrGln.vertline.SerSerThrGlu-amide” it is “Gln-Ser”; for “Ac-AsnLysIleSerTyrGln.vertline.SerSer-amide” it is “Gln-Ser”.
For the molecule “Ac-LysIleSerTyrGln.vertline.SerSer-amide”, the cleaved bond entry in the series with free PSA is “Gln-Ser”.
On the same count and under the same terms, the entry for “Ac-SerTyrGln.vertline.SerSerSerThrGlu-amide” is “Gln-Ser”; for “Ac-SerTyrGln.vertline.SerSerThrGlu-amide” it is “Gln-Ser”.
Take “Ac-hArg(Cha)Gln.vertline.SerSerSer(ethylester-Leu)”: the cleaved bond entry in the series on free PSA is reported as “Gln-Ser”.
For “Ac-hArgTyrGln.vertline.SerSerSer(Ethylester-Leu)”, the cleaved bond entry in the series on free PSA was “Gln-Ser”.
On the same count and under the same terms, the entry for Ac-hArgTyrGln.vertline.SerSerSer(MeLeu) is “Gln-Ser”; for “AlaAsnLysIleSerTyrGln.vertline.SerSerSerThrGlu-amide” it is “Gln-Ser”.

The record behind these values is US6177404A (Merck & Co., Inc., priority 1998, dated 2001).
